Values joined by “and” are separate entries in the source; they are usually repeats but may differ in a detail not shown here. Identical values can stand only once.
How the values were obtained:
Format in all cases: physicochemical
[1] = Emission properties: luminescence lifetime and quantum luminescence yield in water and D2O; details: for Emission τ (luminescence lifetime): error estimated ±5%; for Emission φ (quantum luminescence yield): error estimated ±15%
From the text: Their optical luminescence properties, the luminescence lifetimes and the brightness properties are exceptional, with quantum yields of about 38% for Tb, 18% for Eu and lifetimes of the excited states of greater than 3 milliseconds for the Tb(I-3) and Tb(I-4) complexes.
By way of example, all of the absorption and emission properties of the terbium and europium complexes synthesized from the ligands (I-1) to (I-4) in accordance with the invention are summarized in Table 1 below:
The parameters φ and τ represent, respectively, the quantum luminescence yields and the luminescence lifetimes. They may be measured in water and in D2O.

[2] = Stability of terbium complexes (luminescence lifetime) in buffers with ligands capable of decomplexing the lanthanide ions; details: for stability: various aqueous media
Method: By way of example, the stability of the terbium complexes synthesized from the ligands (I-1) to (I-4) in accordance with the invention is given in Table 2 below. Various buffers in the presence of ligands capable of decomplexing the lanthanide ions were tested. For comparative purposes, Table 2 also gives the stability of a terbium complex TbL4 of the prior art corresponding to the following formula: […]

[3] = Absorption properties of the terbium and europium complexes in TRIS/HCl buffer; details: 0.01M TRIS/HCl buffer at pH = 7.0
From the text: By way of example, all of the absorption and emission properties of the terbium and europium complexes synthesized from the ligands (I-1) to (I-4) in accordance with the invention are summarized in Table 1 below: […]

[4] = Tris 50 mM - Serum 50%, pH = 7.0
[5] = Tris 0.1M - EDTA 10 mM, pH = 7.0
[6] = Tris 0.1M - KF 400 mM, pH = 7.0

| Structure (SMILES) | Emission τ (luminescence lifetime) ([1]; D2O) | Emission φ (quantum luminescence yield) ([1]; D2O) | Emission τ (luminescence lifetime) ([1]; H2O) | Emission φ (quantum luminescence yield) ([1]; H2O) | τ ([2]; H2O, estimated error ±5%) | τ ([2]; Phosphate 0.1M, pH = 7.0) | τ [2, 4] | τ [2, 5] | τ [2, 6] | τ ([2]; Tris 0.1M, pH = 7.0) | stability [2] | Absorption λabs [3] |
| --- | --- | --- | --- | --- | --- | --- | --- | --- | --- | --- | --- | --- |
| CCOP(=O)([O-])CN(Cc1cc(C#Cc2ccc(C(=O)NCCCC(=O)[O-])c3ccccc23)cc(CN(CP(=O)([O-])OCC)CP(=O)([O-])OCC)n1)CP(=O)([O-])OCC.[Na+].[Na+].[Tb+3] [Tb(I-3)] | 3.4 ms | 42% | 3.1 ms | 38% | 3.1 ms | 2.9 ms | 3.0 ms | 3.0 ms | 2.9 ms | 3.0 ms | excellent stability | 272 nm and 353 nm |
| CCOP(=O)([O-])CN(CC(=O)[O-])Cc1cc(C#Cc2ccc(C(=O)NCCCC(=O)[O-])c3ccccc23)cc(CN(CC(=O)[O-])CP(=O)([O-])OCC)n1.[Na+].[Na+].[Tb+3] [Tb(I-1)] | 3.1 ms | 46% | 2.8 ms | 35% | 2.8 ms | 2.7 ms | 2.6 ms | 2.6 ms | 2.6 ms | 2.7 ms | – | 268 nm and 348 nm |
| CCOP(=O)([O-])CN(Cc1cc(C#Cc2ccc(C(=O)NCCCC(=O)[O-])c3ccccc23)cc(CN(CP(=O)([O-])OCC)CP(=O)([O-])OCC)n1)CP(=O)([O-])OCC.[Eu+3].[Na+].[Na+] [Eu(I-3)] | 2.5 ms | 22% | 1.7 ms | 18% | – | – | – | – | – | – | – | 270 nm and 352 nm |
| CCOP(=O)([O-])CN(CC(=O)[O-])Cc1cc(C#Cc2ccc(C(=O)NCCCC(=O)[O-])c3ccccc23)cc(CN(CC(=O)[O-])CP(=O)([O-])OCC)n1.[Eu+3].[Na+].[Na+] [Eu(I-1)] | 2.4 ms | 24% | 1.5 ms | 16% | – | – | – | – | – | – | – | 266 nm and 349 nm |
| CCOP(=O)([O-])CN(Cc1cc(C#Cc2ccc(C#CCCCCC(=O)[O-])c3ccccc23)cc(CN(CP(=O)([O-])OCC)CP(=O)([O-])OCC)n1)CP(=O)([O-])OCC.[Eu+3].[Na+].[Na+] [Eu(I-4)] | 2.5 ms | 24% | 1.6 ms | 17% | – | – | – | – | – | – | – | 268 nm and 350 nm |
| CCOP(=O)([O-])CN(CC(=O)[O-])Cc1cc(C#Cc2ccc(C#CCCCCC(=O)[O-])c3ccccc23)cc(CN(CC(=O)[O-])CP(=O)([O-])OCC)n1.[Eu+3].[Na+].[Na+] [Eu(I-2)] | 2.4 ms | 26% | 1.6 ms | 17% | – | – | – | – | – | – | – | 265 nm and 347 nm |
| CCOP(=O)([O-])CN(Cc1cc(C#Cc2ccc(C#CCCCCC(=O)[O-])c3ccccc23)cc(CN(CP(=O)([O-])OCC)CP(=O)([O-])OCC)n1)CP(=O)([O-])OCC.[Na+].[Na+].[Tb+3] [Tb(I-4)] | 3.5 ms | 41% | 3.2 ms | 36% | 3.2 ms | 3.0 ms | 3.0 ms | 3.1 ms | 3.0 ms | 3.1 ms | excellent stability | 272 nm and 352 nm |
| CCOP(=O)([O-])CN(CC(=O)[O-])Cc1cc(C#Cc2ccc(C#CCCCCC(=O)[O-])c3ccccc23)cc(CN(CC(=O)[O-])CP(=O)([O-])OCC)n1.[Na+].[Na+].[Tb+3] [Tb(I-2)] | 3.2 ms | 45% | 2.6 ms | 32% | 2.6 ms | 2.5 ms | 2.4 ms | 2.4 ms | 2.5 ms | 2.5 ms | – | 270 nm and 349 nm |

From patent US9388202B2, “Luminescent probes for biological labeling and imaging, method for preparing same” (CENTRE NATIONAL DE LA RECHERCHE SCIENTIFIQUE, priority 2011, dated 2016)
